Where a SMILES comes first, the peptide text is derived from it. Bridges are numbered along the chain shown (N, C = ends). [ ]: non-standard residue; d: D form. The star is where a group is joined. Bip(3'-COOH) = N[C@@H](Cc1ccc(-c2cccc(C(=O)O)c2)cc1)C(=O)O; Phe(3-CF3) = N[C@@H](Cc1cccc(C(F)(F)F)c1)C(=O)O; Ala(morpholin-4-yl) = N[C@@H](CN1CCOCC1)C(=O)O; Phe(4-COOH) = N[C@@H](Cc1ccc(C(=O)O)cc1)C(=O)O; Trp(7-F) = N[C@@H](Cc1c[nH]c2c(F)cccc12)C(=O)O; Bip = N[C@@H](Cc1ccc(-c2ccccc2)cc1)C(=O)O; Phe(4-CN) = N#Cc1ccc(C[C@H](N)C(=O)O)cc1; Phe(3-Me) = Cc1cccc(C[C@H](N)C(=O)O)c1; Val(3-OH) = CC(C)(O)[C@H](N)C(=O)O; 4Pal = N[C@@H](Cc1ccncc1)C(=O)O; Cha = N[C@@H](CC1CCCCC1)C(=O)O; Cit = NC(=O)NCCC[C@H](N)C(=O)O; Carboxymethyl = O=C(O)C*; Orn = NCCC[C@H](N)C(=O)O; Pra = C#CC[C@H](N)C(=O)O; Dab = NCC[C@H](N)C(=O)O; Dap = NC[C@H](N)C(=O)O; Propargyl = C#CC*
The molecules below were run against T1, human PD-1 / PD-L1-Ig binding on Jurkat cell line over-expressing human PD-1 (Jurkat-PD-1) (Homo sapiens, UniProt Q15116) (assay: Jurkat-PD-1 Cell Binding High-Content Screening Assay (CBA)). Details: Jurkat-PD-1 cells, PE-labeled PD-L1-Ig 20 nM final; read-out: Jurkat HPD1_PDL1 IC50.
T1 construct: expressed in transfected cells; host or cells: Jurkat
T1 sequence (Q15116 25-288): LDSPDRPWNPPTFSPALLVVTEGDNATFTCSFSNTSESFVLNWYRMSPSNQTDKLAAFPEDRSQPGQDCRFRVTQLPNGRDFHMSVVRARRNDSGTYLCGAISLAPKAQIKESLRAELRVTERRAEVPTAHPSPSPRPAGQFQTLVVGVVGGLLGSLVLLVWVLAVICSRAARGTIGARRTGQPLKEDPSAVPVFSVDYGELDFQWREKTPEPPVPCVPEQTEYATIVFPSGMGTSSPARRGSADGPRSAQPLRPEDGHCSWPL
Assay type: cell-based
Outline: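 Cell-bound PE-labeled PD-L1-Ig (20 nM final, 1 h) measured by high-content imaging after fixation and Hoechst 33342 counterstain. Compound was applied first for 2 h at 37° C. to Jurkat cells over-expressing human PD-1 in DMEM with 10% FCS.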

Row | SMILES | IC50 [µM]
1 | CC(C)C[C@H]1NC(=O)[C@H](CCCN)NC(=O)[C@H](CCC(=O)O)NC(=O)[C@H](Cc2ccc(-c3ccccc3)cc2)NC(=O)[C@H](C(C)C)NC(=O)[C@H](Cc2c[nH]c3ccccc23)NC(=O)[C@H](CC(=O)O)NC(=O)[C@H](Cc2ccc(OCC(=O)O)cc2)NC(=O)[C@H](CN)NC(=O)CSC[C@@H](C(=O)N[C@@H](C)C(N)=O)NC(=O)[C@H]([C@@H](C)O)NC(=O)[C@H](C(C)C)NC(=O)[C@H](CC2CCCCC2)NC(=O)[C@H](CC(=O)O)NC1=O [Compound 1514] ({CH2CO}-[Dap]Y(Carboxymethyl)DWV[Bip]E[Orn][dL]D[Cha]VTCA-NH2; thioether N-14) | 0.0348
2 | CC(C)C[C@H]1NC(=O)[C@H](CCCN)NC(=O)[C@H](CCCNC(N)=O)NC(=O)[C@H](Cc2ccc(-c3ccccc3)cc2)NC(=O)[C@H](C(C)C)NC(=O)[C@H](Cc2c[nH]c3ccccc23)NC(=O)[C@H](CC(=O)O)NC(=O)[C@H](Cc2ccc(C#N)cc2)NC(=O)[C@H](CN)NC(=O)CSC[C@@H](C(=O)N[C@@H](C)C(N)=O)NC(=O)[C@H]([C@@H](C)O)NC(=O)[C@H](C(C)C)NC(=O)[C@H](CC2CCCCC2)NC(=O)[C@H](CCN)NC1=O [Compound 2101] ({CH2CO}-[Dap][Phe(4-CN)]DWV[Bip][Cit][Orn][dL][Dab][Cha]VTCA-NH2; thioether N-14) | 0.0066
3 | CC(C)C[C@@H]1NC(=O)[C@H](Cc2c[nH]c3ccccc23)NC(=O)[C@H](CC(=O)O)NC(=O)[C@H](Cc2ccncc2)NC(=O)[C@H](CN)NC(=O)CSC[C@@H](C(=O)NCC(N)=O)NC(=O)[C@H](CO)NC(=O)[C@H](C(C)C)NC(=O)[C@H](CC(C)C)NC(=O)[C@H](CC(N)=O)NC(=O)[C@@H](CC(C)C)NC(=O)[C@H](CCN)NC(=O)[C@H](C(C)C)NC(=O)[C@H](Cc2ccc(-c3ccccc3)cc2)NC1=O [Compound 1281] ({CH2CO}-[Dap][4Pal]DWL[Bip]V[Dab][dL]NLVSCG-NH2; thioether N-14) | 0.0089
4 | C#CCOc1ccc(C[C@@H]2NC(=O)[C@H](CC3CCCCC3)NC(=O)[C@H](CCN)NC(=O)[C@@H](CC(C)C)NC(=O)[C@H](CCCN)NC(=O)[C@H](C(C)C)NC(=O)[C@H](Cc3ccc(-c4ccccc4)cc3)NC(=O)[C@H](C(C)C)NC(=O)[C@H](Cc3cccc(C)c3)NC(=O)[C@H](CC(=O)O)NC(=O)[C@H](Cc3ccc(C(=O)O)cc3)NC(=O)[C@H](CN)NC(=O)CSC[C@@H](C(=O)N[C@@H](CCN)C(N)=O)NC(=O)[C@H]([C@@H](C)O)NC2=O)cc1 [Compound 2028] ({CH2CO}-[Dap][Phe(4-COOH)]D[Phe(3-Me)]V[Bip]V[Orn][dL][Dab][Cha]Y(Propargyl)TC[Dab]-NH2; thioether N-14) | 0.0093
5 | CC(C)C[C@H]1NC(=O)[C@H](CCCN)NC(=O)[C@H](CCC(=O)O)NC(=O)[C@H](Cc2ccc(-c3ccccc3)cc2)NC(=O)[C@H](C(C)C)NC(=O)[C@H](Cc2c[nH]c3ccccc23)NC(=O)[C@H](CC(=O)O)NC(=O)[C@H](Cc2ccc(-c3cccc(C(=O)O)c3)cc2)NC(=O)[C@H](Cc2ccccc2)NC(=O)CSC[C@@H](C(=O)N[C@@H](C)C(N)=O)NC(=O)[C@H]([C@@H](C)O)NC(=O)[C@H](C(C)C)NC(=O)[C@H](CC2CCCCC2)NC(=O)[C@H](CCN)NC1=O [Compound 2161] ({CH2CO}-F[Bip(3'-COOH)]DWV[Bip]E[Orn][dL][Dab][Cha]VTCA-NH2; thioether N-14) | 0.027
6 | CC(C)C[C@H]1NC(=O)[C@H](CCCN)NC(=O)[C@H](C(C)C)NC(=O)[C@H](Cc2ccc(-c3ccccc3)cc2)NC(=O)[C@H](C(C)C)NC(=O)[C@H](Cc2c[nH]c3c(F)cccc23)NC(=O)[C@H](CC(=O)O)NC(=O)[C@H](Cc2ccc(OCC(=O)O)cc2)NC(=O)[C@H](CN)NC(=O)CSC[C@@H](C(=O)N[C@@H](CCN)C(N)=O)NC(=O)[C@H]([C@@H](C)O)NC(=O)[C@H](C(C)C)NC(=O)[C@H](CC2CCCCC2)NC(=O)[C@H](CCN)NC1=O [Compound 2020] ({CH2CO}-[Dap]Y(Carboxymethyl)D[Trp(7-F)]V[Bip]V[Orn][dL][Dab][Cha]VTC[Dab]-NH2; thioether N-14) | 0.0131
7 | CC(C)C[C@H]1NC(=O)[C@H](CCCN)NC(=O)[C@H](CCCN)NC(=O)[C@H](Cc2ccc(-c3ccccc3)cc2)NC(=O)[C@H](Cc2ccc(C(=O)O)cc2)NC(=O)[C@H](Cc2cccc(C(F)(F)F)c2)NC(=O)[C@H](CC(N)=O)NC(=O)[C@H](Cc2ccc(OCC(=O)O)cc2)NC(=O)[C@H](CN2CCOCC2)NC(=O)CSC[C@@H](C(=O)N[C@@H](CCN)C(N)=O)NC(=O)[C@H](CCCN)NC(=O)[C@H](C(C)C)NC(=O)[C@H](CC2CCCCC2)NC(=O)[C@H](CCN)NC1=O [Example 2726] ({CH2CO}-[Ala(morpholin-4-yl)]Y(Carboxymethyl)N[Phe(3-CF3)][Phe(4-COOH)][Bip][Orn][Orn][dL][Dab][Cha]V[Orn]C[Dab]-NH2; thioether N-14) | 0.0655
8 | Cc1cccc(C[C@@H]2NC(=O)[C@H](CC(=O)O)NC(=O)[C@H](Cc3ccc(C(=O)O)cc3)NC(=O)[C@H](Cc3ccncc3)NC(=O)CSC[C@@H](C(N)=O)NC(=O)[C@H]([C@@H](C)O)NC(=O)[C@H](C(C)C)NC(=O)[C@H](CC3CCCCC3)NC(=O)[C@H](CCN)NC(=O)[C@@H](CC(C)C)NC(=O)[C@H](CCCN)NC(=O)[C@H](C(C)C)NC(=O)[C@H](Cc3ccc(-c4ccccc4)cc3)NC(=O)[C@H](C(C)C)NC2=O)c1 [Compound 1548] ({CH2CO}-[4Pal][Phe(4-COOH)]D[Phe(3-Me)]V[Bip]V[Orn][dL][Dab][Cha]VTC-NH2; thioether N-14) | 0.0184
9 | CC(C)C[C@H]1NC(=O)[C@H](CCCN)NC(=O)[C@H](CCCNC(N)=O)NC(=O)[C@H](Cc2ccc(-c3ccccc3)cc2)NC(=O)[C@H](C(C)C)NC(=O)[C@H](Cc2c[nH]c3ccccc23)NC(=O)[C@H](CC(=O)O)NC(=O)[C@H](Cc2ccc(O)cc2)NC(=O)[C@H](Cc2ccc(OCC(=O)O)cc2)NC(=O)CSC[C@@H](C(=O)N[C@@H](C)C(N)=O)NC(=O)[C@H]([C@@H](C)O)NC(=O)[C@H](C(C)C)NC(=O)[C@H](CC2CCCCC2)NC(=O)[C@H](CCN)NC1=O [Compound 1165] | 0.0146

Further lines, results first:

Row | IC50 [µM] | SMILES
10 | 0.0027 | Cc1cccc(C[C@@H]2NC(=O)[C@H](CC(=O)O)NC(=O)[C@H](Cc3ccc(OCC(=O)O)cc3)NC(=O)[C@H](CN)NC(=O)CSC[C@@H](C(=O)N[C@@H](C)C(N)=O)NC(=O)[C@H]([C@@H](C)O)NC(=O)[C@H](C(C)C)NC(=O)[C@H](CC3CCCCC3)NC(=O)[C@H](CCN)NC(=O)[C@@H](CC(C)C)NC(=O)[C@H](CCCN)NC(=O)[C@H](CCCNC(N)=O)NC(=O)[C@H](Cc3ccc(-c4ccccc4)cc3)NC(=O)[C@H](C(C)C)NC2=O)c1 [Compound 1208]
11 | 0.0099 | CC(C)C[C@H]1NC(=O)[C@H](CCCN)NC(=O)[C@H](C(C)C)NC(=O)[C@H](Cc2ccc(-c3ccccc3)cc2)NC(=O)[C@H](C(C)C)NC(=O)[C@H](Cc2c[nH]c3ccccc23)NC(=O)[C@H](CC(=O)O)NC(=O)[C@H](Cc2ccc(C(=O)O)cc2)NC(=O)[C@H](Cc2ccc(OCC(=O)O)cc2)NC(=O)CSC[C@@H](C(=O)N[C@@H](C)C(N)=O)NC(=O)[C@H](CN)NC(=O)[C@H](C(C)C)NC(=O)[C@H](CC2CCCCC2)NC(=O)[C@H](CCN)NC1=O [Compound 1739] ({CH2CO}-Y(Carboxymethyl)[Phe(4-COOH)]DWV[Bip]V[Orn][dL][Dab][Cha]V[Dap]CA-NH2; thioether N-14)
12 | 0.0039 | C#CCOc1ccc(C[C@@H]2NC(=O)[C@H](Cc3cccc(C)c3)NC(=O)[C@H](CC(=O)O)NC(=O)[C@H](Cc3ccc(C(=O)O)cc3)NC(=O)[C@H]([C@@H](C)O)NC(=O)CSC[C@@H](C(=O)N[C@@H](CCN)C(N)=O)NC(=O)[C@H](CCC(=O)O)NC(=O)[C@H](C(C)C)NC(=O)[C@H](CC3CCCCC3)NC(=O)[C@H](CCN)NC(=O)[C@@H](CC(C)C)NC(=O)[C@H](CCCN)NC(=O)[C@H](Cc3ccc(C(=O)O)cc3)NC(=O)[C@H](Cc3ccc(-c4ccccc4)cc3)NC2=O)cc1 [Compound 1841] ({CH2CO}-T[Phe(4-COOH)]D[Phe(3-Me)]Y(Propargyl)[Bip][Phe(4-COOH)][Orn][dL][Dab][Cha]VEC[Dab]-NH2; thioether N-14)
13 | 0.0274 | CC(C)C[C@H]1NC(=O)[C@H](CCCN)NC(=O)[C@H](CCC(=O)O)NC(=O)[C@H](Cc2ccc(-c3ccccc3)cc2)NC(=O)[C@H](C(C)C)NC(=O)[C@H](Cc2cccc(C(F)(F)F)c2)NC(=O)[C@H](CC(=O)O)NC(=O)[C@H](Cc2ccc(OCC(=O)O)cc2)NC(=O)[C@H](Cc2ccc(OCC(=O)O)cc2)NC(=O)CSC[C@@H](C(=O)N[C@@H](C)C(N)=O)NC(=O)[C@H]([C@@H](C)O)NC(=O)[C@H](C(C)C)NC(=O)[C@H](CC2CCCCC2)NC(=O)[C@H](CCN)NC1=O [Compound 1465]
14 | 0.005 | C#CC[C@H](NC(=O)[C@H](CCN)NC(=O)[C@@H]1CSCC(=O)N[C@@H](CN)C(=O)N[C@@H](Cc2ccc(OCC(=O)O)cc2)C(=O)N[C@@H](CC(=O)O)C(=O)N[C@@H](Cc2cccc(C)c2)C(=O)N[C@@H](Cc2ccc(OCC(=O)O)cc2)C(=O)N[C@@H](Cc2ccc(-c3ccccc3)cc2)C(=O)N[C@@H](Cc2ccc(OCC(=O)O)cc2)C(=O)N[C@@H](CCCN)C(=O)N[C@H](CC(C)C)C(=O)N[C@@H](CCN)C(=O)N[C@@H](CC2CCCCC2)C(=O)N[C@@H](C(C)(C)O)C(=O)N[C@@H]([C@@H](C)O)C(=O)N1)C(N)=O [Compound 1858] ({CH2CO}-[Dap]Y(Carboxymethyl)D[Phe(3-Me)]Y(Carboxymethyl)[Bip]Y(Carboxymethyl)[Orn][dL][Dab][Cha][Val(3-OH)]TC[Dab][Pra]-NH2; thioether N-14)
15 | 0.0156 | Cc1cccc(C[C@@H]2NC(=O)[C@H](CC(=O)O)NC(=O)[C@H](Cc3ccc(C(=O)O)cc3)NC(=O)[C@H](Cc3ccc(OCC(=O)O)cc3)NC(=O)CSC[C@@H](C(N)=O)NC(=O)[C@H]([C@@H](C)O)NC(=O)[C@H](C(C)C)NC(=O)[C@H](CC(C)C)NC(=O)[C@H](CCN)NC(=O)[C@@H](CC(C)C)NC(=O)[C@H](CCCN)NC(=O)[C@H](C(C)C)NC(=O)[C@H](Cc3ccc(-c4ccccc4)cc3)NC(=O)[C@H](C(C)C)NC2=O)c1 [Compound 1551] ({CH2CO}-Y(Carboxymethyl)[Phe(4-COOH)]D[Phe(3-Me)]V[Bip]V[Orn][dL][Dab]LVTC-NH2; thioether N-14)

Source: patent US20250163104A1, “MACROCYCLIC IMMUNOMODULATORS” (priority 2021, published 2025)
